In US6551774B1, “Diagnostic methods for conditions associated with elevated cellular levels of telomerase activity” (Board of Regents, The University of Texas System, priority 1992, dated 2003):

Columns and labels:
Tetrahymena cells [1] = test: Growth, morphology and senescence of Tetrahymena mass-transfer cultures with nucleoside analogs; assay type: cell-based, Tetrahymena thermophila; settings: 2% PPYS plus, mass transfer
Method: (§1) For analysis of macronuclear DNA from cultures containing the nucleoside analog AZT (Sigma), or controls lacking analog, at various timepoints during vegetative divisions, cells from stationary stock cultures were inoculated into 25 ml thymine-deficient Iso-sensitest broth (‘Isobroth’, Oxoid USA) in 250 ml flasks. Cultures were incubated at 30° C. with shaking (100 rpm) for 48 hours. Cells were counted and plated at 1000 cells/1.5 ml in 24-well plates (Falcon) and grown at 30° C., without shaking, for 48 hours. 5 μl of these log phase cells were used to inoculate 1 ml cultures (Isobroth) containing varied concentrations of nucleoside analog. Thereafter, every 2-4 days cells were transferred, either 5 μl per well, or 1-3 μl using a multi-pronged replicator into fresh 1 ml broth containing AZT. Remaining cells were pelleted and stored at −80° C. until processed for DNA analysis.
(§2) For analysis of macronuclear DNA from vegetative cultures containing the nucleoside analogs Ara-G (Calbiochem), ddG (Calbiochem), or ddI (Calbiochem), or controls lacking analog, stock cultures were grown overnight in 2% PPYS as described. Cells were counted and plated at 100 cells/2 ml in 2% PPYS containing varied amounts of analog, 1% DMSO (Fisher) (as a control for ddG and Ara-G), or 2% PPYS alone. Cells were replica plated into fresh medium every 2-6 days, and remaining cells were pelleted and stored at −80° C. until processed for DNA analysis.
To test whether such a phenotype could be produced by inhibitors of telomerase in Tetrahymena, duplicate log-phase cultures were grown for prolonged periods in the presence of varying concentrations of analogs. The growth and cell morphology of these cultures were monitored, and DNA was isolated at different times for telomere length analysis. […] From growth rate measurements it was calculated that the cells went through 150 to 250 cell generations in the course of this 50 day period.

Tetrahymena cells [2] = test: Single-cell transfer cultures of Tetrahymena with AZT or Ara-G; assay type: cell-based, Tetrahymena thermophila; settings: 10 μM AZT; 10 μM or 1 mM Ara-G; 1 to 10 cells per well
Method: For analysis of vegetative growth and macronuclear DNA from single-cell cultures containing the nucleoside analogs AZT or Ara-G, SB210 (VI) cells were grown from stationary stock cultures overnight at 30° C. with shaking (100 rpm) in 50 ml 2% PPYS or Isobroth. Cells were counted and added to the appropriate medium plus analog (Ara-G to 1 mM or DMSO to 1% as control in 2% PPYS; AZT to 10 μm or 1 mM, or no addition as control in Isobroth) and plated in 96-well plates (Falcon), 100 μl per well at a density of 1 cell per well. 5 plates were prepared for each analog or control. Wells were scored for cell growth and plates were replica plated every 1-2 days (Ara-G and DMSO plates) or every 2-4 days (AZT and Isobroth control plates) to maintain approximate inoculation densities of 1-10 cells per well for each passage. Occasionally individual wells were passaged by hand (1 μl inoculated per well using a pipettor) into several blank wells, to expand the number of live wells per plate as single-cell cultures were lost over time due to low probability of being transferred at each passage. After passaging, cells were pooled, pelleted and stored at −80° C. until processed for DNA analysis.
To test whether we had missed such a subpopulation of cells, we carried out the same experiments on vegetatively dividing Tetrahymena cells in the presence and absence of drug, but in these experiments the subculturing was carried out by plating cells at an average of 1 to 10 cells per well in microtiter plate wells in the presence of 10 μM and 1 mM AZT, and 10 μM and 1 mM Ara-G. For each drug, cells were plated out in this manner for 30 consecutive days (90 to 150 cell generations) and 16 consecutive days (50 to 80 cell generations) respectively for the 10 μM and 1 mM drug concentrations. DNA was isolated at intervals from combined samplings of the wells for analysis of telomere length.

Tetrahymena cells [3] = test: Progeny formation (cycloheximide resistance) of Tetrahymena conjugated in the presence of analog; assay type: cell-based, Tetrahymena thermophila; settings: for # CHX-R: number of cycloheximide-resistant wells; for irreversible disruption of macronuclear development: analog present during conjugation
Method: For analysis of cycloheximide (CHX) sensitivity of cells conjugated in the presence of analog, 50 ml cultures of each cell type were grown overnight in 2% PPYS, starved in Dryl's for 18 hours, mated (5×10^5 cells/ml) for 6 hours, then analog was added. Cells were allowed to complete mating in the presence of the analog. Twenty-four hours after mixing, cells were diluted in Dryl's solution, counted and plated at 1 cell per well of 96-well plates in 1% PPYS without analog. Cells were grown for 4 days in a humid chamber at 30° C., without shaking. Cells were then replica plated into 1% PPYS plus 15 μg/ml cycloheximide, allowed to grow for four days before scoring, and percent of CHX-resistant wells was calculated. Because generation of progeny expressing the cycloheximide marker requires successful production of a new macronucleus, cells whose macronuclear development was disrupted by the analog are killed in CHX.
This process involves de novo formation of new macronuclear telomeres in the progeny cells. Macronuclear development in ciliated protozoans such as Tetrahymena involves developmentally programmed, site-specific fragmentation of germline chromosomes into linear subchromosomes, whose ends are healed by de novo addition of telomeres. […] Because of the immediate requirement for telomere addition to fragmented DNA, it is possible that the latter process might be more sensitive to telomerase inhibition than telomere maintenance during vegetative growth. To test whether nucleoside analogs cause inhibition of macronuclear development due to a disruption of telomere formation, we mated two strains of Tetrahymena which are sensitive to cycloheximide, but whose progeny after mating are resistant to cycloheximide. Synchronized mated cells were treated with AZT at concentrations ranging from 10 μM to 5 mM for a period beginning just prior to when macronuclear development begins and continuing during macronuclear development (the period 6-24 hours after mating was initiated). […] In attempts to maximize the effect of AZT, cells were either refed at 6 hrs with 2% PPYS or Isobroth, or starved until 24 hrs (the duration of the AZT treatment). Such starvation arrests macronuclear development at an intermediate stage. When refed, macronuclear development would then be forced to proceed in the presence of the AZT. Control, unmated parental cells were also plated and exposed to drug.

[4] = target: T1, human telomerase obtained from the tumor cell line 296 (Homo sapiens, UniProt O14746); test: Inhibition of human telomerase from a tumor cell line; assay type: biochemical
T1 construct: human telomerase obtained from the tumor cell line 296; endogenous in cells; host or cells: tumor cell line 296 (so in the source)

[5] = system: lymphoma cell line JY 616; test: Growth of cultured JY lymphoma cells with potential telomerase inhibitors; assay type: cell-based, human; settings: 20 μM
Method: (§3) The effect of the agents on telomerase activity in intact cells was then studied utilizing the lymphoma cell line JY 616 which were maintained in RPMI 1640 with […] Hepes, 10% FCS, and penicillin/streptomycin (Gibco). The cells were cultured in 6-well plates (Falcon) with 5.0 ML of medium per well in duplicate. Cells were passaged every 7-10 days which corresponded to 5-7 mean population doublings (MPD), and seeded at 3×10^4 cells per well into fresh medium containing analog or control. Cell viability was monitored prior to harvest utilizing trypan blue stain (Gibco) during counting with a hemocytometer. The average ratio of stained: unstained cells (dead:alive) was […]. The intactness of the DNA was measured on a parallel gel by observing its mobility in a gel prior to digestion by a restriction enzyme.

Tetrahymena cells [6] = test: Telomere length in vegetatively grown Tetrahymena by Southern blot; assay type: cell-based, Tetrahymena thermophila; settings: up to 1 mM, 5 days of subculturing (15-20 cell generations), 2% PPYS
Method: as §1, §2
For analysis of macronuclear DNA from vegetative cultures containing d4T (Sigma) or control lacking the analog, stock cultures (SB210 VI) were grown overnight in Isobroth as described. Cells were then counted and duplicate cultures inoculated at 500 cells/5 ml Isobroth in 50 ml conical tubes, and grown at 30° C., shaking 80 rpm. 500-2000 cells were transfered to fresh broth every 2-4 days, and the remainder pelleted and stored at −80° C. until processed for DNA analysis.
Restriction digests, agarose gel electrophoresis, transfer of DNA to Nytran filters (Schleicher and Schuell), and hybridization with ^32P-nick-trapplated or random-primed probes were carried out using standard procedures (Maniatis et.al. 1989). Telomere length was analyzed as described previously for Tetrahymena [Larson 50 Cell, 477, 1987].
Telomere lengths in cells grown in the presence of the different analogs were monitored by Southern blot analysis of DNA samples extracted at a series of time points during the subculturings. The telomeres of cells grown vegetatively in 1 and 5 mM AZT in 2% PPYS medium were reproducibly shortened by up to an average of 170 base pairs compared with the control cultures grown in 2% PPYS in the absence of the drug (FIG. 21A and B). This shortening of telomeres occured in a concentration-dependent manner (FIG. 21B), with at least 50% of the maximal shortening effect occurring by 10 μM AZT, the lowest concentration tested.

[7] = system: lymphoma cell line JY 616; test: Telomere length of JY lymphoma cells by Southern blot; assay type: cell-based, human; settings: 10 μM, 9 and 10 weeks
Method: The first lane is DNA from the cells at the start of the experiment, the second is the RPMI control, and the third is cells treated with AZT for the times indicated.
Cells were treated over a 10 week period with either 10 μM ddG in 0.01% DMSO or medium with 0.01% DMSO only.
as §3

[8] = 0.1 mM analog (head prints MM), first block for the analog
[9] = 0.1 mM analog, first block for the analog
[10] = 1.0 mM analog (head prints MM), first block for the analog
[11] = 1.0 mM analog, first block for the analog

T1 sequence (O14746 whole entry): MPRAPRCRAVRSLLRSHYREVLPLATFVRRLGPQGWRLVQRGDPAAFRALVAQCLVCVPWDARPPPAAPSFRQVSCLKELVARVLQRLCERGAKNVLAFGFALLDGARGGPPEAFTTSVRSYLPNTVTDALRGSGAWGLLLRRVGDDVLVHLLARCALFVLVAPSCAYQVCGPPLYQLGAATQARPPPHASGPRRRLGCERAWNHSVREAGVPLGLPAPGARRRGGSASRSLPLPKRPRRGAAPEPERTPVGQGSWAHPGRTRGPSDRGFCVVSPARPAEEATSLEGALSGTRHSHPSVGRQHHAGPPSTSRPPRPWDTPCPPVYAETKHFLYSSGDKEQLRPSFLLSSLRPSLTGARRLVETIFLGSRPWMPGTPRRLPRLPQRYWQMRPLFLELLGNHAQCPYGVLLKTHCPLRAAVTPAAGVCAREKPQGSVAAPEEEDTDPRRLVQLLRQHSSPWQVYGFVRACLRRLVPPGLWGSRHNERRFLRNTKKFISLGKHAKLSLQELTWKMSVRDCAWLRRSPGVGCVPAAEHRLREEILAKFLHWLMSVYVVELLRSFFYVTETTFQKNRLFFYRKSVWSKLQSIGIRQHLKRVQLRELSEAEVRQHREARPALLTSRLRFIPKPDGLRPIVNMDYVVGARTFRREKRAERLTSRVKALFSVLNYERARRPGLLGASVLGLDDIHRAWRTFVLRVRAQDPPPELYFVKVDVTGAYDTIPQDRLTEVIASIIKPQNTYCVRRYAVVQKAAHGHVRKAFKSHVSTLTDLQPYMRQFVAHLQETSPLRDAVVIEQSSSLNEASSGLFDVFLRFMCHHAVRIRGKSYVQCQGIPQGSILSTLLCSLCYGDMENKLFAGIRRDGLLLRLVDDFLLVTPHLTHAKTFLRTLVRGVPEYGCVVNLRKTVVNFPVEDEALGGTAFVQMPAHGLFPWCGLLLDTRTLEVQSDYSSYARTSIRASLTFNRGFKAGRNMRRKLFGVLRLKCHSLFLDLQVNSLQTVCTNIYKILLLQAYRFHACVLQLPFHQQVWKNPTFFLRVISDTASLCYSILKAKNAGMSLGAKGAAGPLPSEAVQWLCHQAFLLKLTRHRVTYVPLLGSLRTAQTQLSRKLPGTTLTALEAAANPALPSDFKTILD
T1 sequence (O60832 whole entry partner): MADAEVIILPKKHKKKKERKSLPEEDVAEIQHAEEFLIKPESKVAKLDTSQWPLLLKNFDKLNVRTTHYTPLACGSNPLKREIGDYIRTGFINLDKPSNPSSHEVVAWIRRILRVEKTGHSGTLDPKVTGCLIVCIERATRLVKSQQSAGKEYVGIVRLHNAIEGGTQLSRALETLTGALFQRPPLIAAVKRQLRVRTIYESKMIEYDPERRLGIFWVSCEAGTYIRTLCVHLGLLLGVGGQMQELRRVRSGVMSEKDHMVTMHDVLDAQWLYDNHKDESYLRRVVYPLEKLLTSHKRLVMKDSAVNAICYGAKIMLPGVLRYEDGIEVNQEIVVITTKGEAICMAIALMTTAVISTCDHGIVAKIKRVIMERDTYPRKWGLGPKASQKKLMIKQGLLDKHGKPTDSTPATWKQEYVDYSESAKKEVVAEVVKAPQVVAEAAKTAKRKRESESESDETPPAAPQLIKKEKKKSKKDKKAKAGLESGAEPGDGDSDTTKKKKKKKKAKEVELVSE
T1 sequence (Q9NPE3 whole entry partner): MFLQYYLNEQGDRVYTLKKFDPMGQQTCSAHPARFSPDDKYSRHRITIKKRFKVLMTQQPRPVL
T1 sequence (Q9NX24 whole entry partner): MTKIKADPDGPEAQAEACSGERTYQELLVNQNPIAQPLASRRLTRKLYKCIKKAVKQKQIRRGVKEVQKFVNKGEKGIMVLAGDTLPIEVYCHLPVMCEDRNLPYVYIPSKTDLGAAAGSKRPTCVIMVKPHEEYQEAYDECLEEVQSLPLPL
T1 sequence (Q9NY12 whole entry partner): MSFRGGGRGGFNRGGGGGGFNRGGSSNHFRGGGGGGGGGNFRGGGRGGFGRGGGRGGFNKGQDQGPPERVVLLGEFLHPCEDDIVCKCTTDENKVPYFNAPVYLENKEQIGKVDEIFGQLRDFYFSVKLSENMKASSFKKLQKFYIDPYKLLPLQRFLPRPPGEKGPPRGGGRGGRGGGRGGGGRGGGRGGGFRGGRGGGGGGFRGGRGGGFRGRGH

inhibition of human telomerase [4]	Structure (SMILES)	cell doubling rate, morphology, long term viability (Tetrahymena cells [1])	plating efficiency compared with control medium (Tetrahymena cells [2])	% CHX-R (Tetrahymena cells [3]; 0.01 mM analog (head prints MM), first block for the analog) [%]	# CHX-R (Tetrahymena cells [3]; 0.01 mM analog, first block for the analog)	% CHX-R (Tetrahymena cells [3]; [8]) [%]	# CHX-R (Tetrahymena cells [3]; [9])	% CHX-R (Tetrahymena cells [3]; [10]) [%]	% CHX-R (Tetrahymena cells [3]; 1.0 mM analog (head prints MM), second block for the analog) [%]	# CHX-R (Tetrahymena cells [3]; [11])	# CHX-R (Tetrahymena cells [3]; 1.0 mM analog, second block for the analog)	% CHX-R (Tetrahymena cells [3]; 2.0 mM analog (head prints MM), second block for the analog) [%]	# CHX-R (Tetrahymena cells [3]; 2.0 mM analog, second block for the analog)	irreversible disruption of macronuclear development (Tetrahymena cells [3])	cell growth [5]	telomere length compared with control cultures (Tetrahymena cells [6])	% CHX-R (Tetrahymena cells [3]; 0.001 mM analog (head prints MM), first block for the analog) [%]	# CHX-R (Tetrahymena cells [3]; 0.001 mM analog, first block for the analog)	telomere length compared to the DMSO control [7]
effective inhibitors of human telomerase	Nc1nc2c(ncn2[C@@H]2O[C@H](CO)[C@@H](O)[C@@H]2O)c(=O)[nH]1 [Ara-G]	no effects on cell doubling rate, morphology or long term viability	no changes in the plating efficiency	81	114	80	134	55	59	89	51	43	40	little or no irreversible disruption	slowed growth				
effective inhibitors of human telomerase	Nc1nc2c(ncn2[C@H]2CC[C@@H](CO)O2)c(=O)[nH]1 [ddG]					85	73	77		51				little or no irreversible disruption		no changes in telomere length	84	86	decrease in telomere length
